Read-outs that look alike come from different tables or passages of the source.
Experiments:
[1] = cited from earlier work
[2] = test system: participants with advanced ovarian cancer; assay: post-hoc analysis of the PRIMA clinical trial (progression free survival); format: in vivo, human; details: post hoc subgroups, Kaplan-Meier
From the text: This example describes a post-hoc analysis of the PRIMA clinical trial.
This was an exploratory post hoc analysis.
For the subgroup analyses, we performed a two-sided log-rank test using randomization stratification factors (best response to last platinum; HRD status; and time from penultimate platinum to progression) to analyze PFS (progression free survival), which was summarized with the use of Kaplan-Meier methods. We estimated hazard ratios with two-sided 95% Confidence Intervals (CIs) using a stratified Cox proportional hazards (PH) model, with the stratification factors used in randomization.
The Cox model for interaction testing also included stratification factors used in randomization as covariates.

[3] = pH 7.0, Shitara et al., Pharmacology & Therapeutics, 2006
[4] = pH 7.4, Matre et al., Vascular Health and Risk Management, 2016

| Structure (SMILES) | log D ([1]; pH 7.4, Shitara et al., Pharmacology & Therapeutics, 2006) | mPFS [2] [months] | log D [1, 3] | log D [1, 4] |
| --- | --- | --- | --- | --- |
| CC(C)c1nc(N(C)S(C)(=O)=O)nc(-c2ccc(F)cc2)c1/C=C/[C@@H](O)C[C@@H](O)CC(=O)O [rosuvastatin] | −0.25 to −0.50 |  |  |  |
| NC(=O)c1cccc2cn(-c3ccc([C@@H]4CCCNC4)cc3)nc12 [niraparib] |  | 13.7 |  |  |
| CC[C@H](C)C(=O)O[C@H]1C[C@H](O)C=C2C=C[C@H](C)[C@H](CC[C@@H](O)C[C@@H](O)CC(=O)O)[C@H]21 [pravastatin] |  |  | −0.47 |  |
| O=C(O)C[C@H](O)C[C@H](O)/C=C/c1c(C2CC2)nc2ccccc2c1-c1ccc(F)cc1 [pitavastatin] |  |  | 1.50 | 1.50 |
| CC[C@H](C)C(=O)O[C@H]1C[C@@H](C)C=C2C=C[C@H](C)[C@H](CC[C@@H]3C[C@@H](O)CC(=O)O3)[C@H]21 [lovastatin] |  |  | 3.91 | 2.59 |
| CC(C)n1c(/C=C/C(O)CC(O)CC(=O)O)c(-c2ccc(F)cc2)c2ccccc21 (stereo not drawn) [fluvastatin] |  |  | 1.75 | 1.75 |
